“And” between values parts separate entries of the source, which are not always exact repeats. Equal entries are not always repeated.

In the assay the target is Gamma-aminobutyric acid receptor subunit alpha-1 (Rattus norvegicus, UniProt P62813).
Gamma-aminobutyric acid receptor subunit alpha-1, sequence (P62813 whole entry): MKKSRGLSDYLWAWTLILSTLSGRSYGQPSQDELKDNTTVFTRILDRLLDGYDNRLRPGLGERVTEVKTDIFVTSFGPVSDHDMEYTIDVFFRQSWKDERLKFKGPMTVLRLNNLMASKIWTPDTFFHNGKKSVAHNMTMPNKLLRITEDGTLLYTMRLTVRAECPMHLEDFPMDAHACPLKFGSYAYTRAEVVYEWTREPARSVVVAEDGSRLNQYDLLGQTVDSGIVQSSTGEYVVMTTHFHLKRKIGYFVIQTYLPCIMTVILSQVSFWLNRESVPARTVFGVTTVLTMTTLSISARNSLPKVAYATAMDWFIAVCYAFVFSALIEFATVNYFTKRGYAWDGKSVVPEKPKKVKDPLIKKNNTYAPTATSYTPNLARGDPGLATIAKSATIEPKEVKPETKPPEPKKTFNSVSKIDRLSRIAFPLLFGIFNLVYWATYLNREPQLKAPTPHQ

As a reminder, the Ki is the dissociation constant of the complex between target and ligand, obtained from inhibition or displacement. For `Cc1nnc2ccc(-c3cccc(C(F)(F)F)c3)nn12`, the affinity, expressed as Ki, was 1310 nM.
For `CN1C(=O)CN=C(c2ccccc2F)c2cc([N+](=O)[O-])ccc21` [Flunitrazepam] the value was 1.37 nM and 1.52 nM.

Values taken from BindingDB's records for doi:10.1016/0922-4106(95)90014-4 (University of Cagliari, 1995).
